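Dose response: 5 concentrations. Exposure: 48 h. Format: 96-well plates. Endpoint: linear interpolation; highest concentration if not reached. Here, GI50 denotes the concentration required for 50% inhibition of growth.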 Active and inactive are the calls of the source. No stated cut-off is given here; in the data, active = GI50 up to about 1.1 µM and inactive = higher.

Among the test systems are SF-539; SF-295; M14; MOLT-4; SR; EKVX; SK-MEL-28; MDA-MB-435; UACC-62; HCC 2998; NCI-H522; RPMI-8226; SK-OV-3; HCT-116; DU-145; MDA-N; HT-29; SNB-19; HOP-92.
Test in all cases: inhibition of tumour cell growth, NCI panel, 48 h

As to `CC(=O)/C(=C\n1c(=S)[nH]c2ccc([N+](=O)[O-])cc21)C(=O)Nc1ccccc1C`, the GI50 is 8.26 µM (inactive) with SF-539; > 100 µM (inactive) in the test on SF-295; > 100 µM (inactive) in the test with M14; > 100 µM (inactive) in the test with MOLT-4; 88.5 µM (inactive) in the test with SR; > 100 µM (inactive) in the test with EKVX. Also, the GI50 in the test on SK-MEL-28, with MDA-MB-435, in the test with UACC-62, with HCC 2998, in the test on NCI-H522 and in the test on RPMI-8226 was > 100 µM (inactive) throughout. The GI50 in the test with SK-OV-3, with HCT-116, in the test with DU-145, with MDA-N and in the test on HT-29 was > 100 µM (inactive) each time.

For the compound `O=C(N/C(=C/c1cccc([N+](=O)[O-])c1)c1nc2cc(Cl)ccc2[nH]1)c1ccccc1`, the GI50 in the test on SF-539 was 3.51 µM (inactive); in the test on SF-295, 36.9 µM (inactive); in the test with M14, 20.7 µM (inactive); in the test on MOLT-4 it was 3.83 µM (inactive); with SR, 3.61 µM (inactive); with EKVX, 3.14 µM (inactive). For the same compound, the GI50 was 22.6 µM (inactive) with SK-MEL-28; 5.4 µM (inactive) in the test with UACC-62; 23.1 µM (inactive) with HCC 2998; 4.07 µM (inactive) in the test with NCI-H522; 2.71 µM (inactive) in the test on RPMI-8226; 17.3 µM (inactive) in the test with SK-OV-3. In addition, the GI50 with SNB-19 is 36.3 µM (inactive); with HCT-116, 8.95 µM (inactive); with HOP-92, 19.1 µM (inactive); in the test on HT-29, 8.95 µM (inactive).

`Cc1ccc(NC(=O)CC/C(CC(=O)C(C)(C)C)=N/NC(=O)C(N)=O)cc1C`: the GI50 with SF-539, in the test on SF-295, with M14, in the test on MOLT-4, with SR and with EKVX was > 100 µM (inactive) throughout. Moreover, the GI50 in the test with SK-MEL-28, with UACC-62, in the test with HCC 2998, in the test with NCI-H522, with RPMI-8226 and in the test with SK-OV-3 was > 100 µM (inactive) each time. Moreover, the GI50 in the test on SNB-19, in the test with HCT-116, with HOP-92 and in the test on HT-29 was > 100 µM (inactive) throughout.

On to `Oc1ccc(Br)cc1/C=N/c1c(NC2CCCCC2)oc2ccc(Br)cc12`, for which the GI50 with SF-539 was 61.2 µM (inactive); with SF-295, 47.4 µM (inactive); in the test on MOLT-4, 7.21 µM (inactive); in the test with SR, 45.9 µM (inactive); with EKVX it was 45.1 µM (inactive); in the test with SK-MEL-28, 41.5 µM (inactive). Moreover, the GI50 was 35.5 µM (inactive) in the test on MDA-MB-435; 38.6 µM (inactive) in the test on UACC-62; 35.8 µM (inactive) with HCC 2998; 7.18 µM (inactive) in the test on RPMI-8226; 87.5 µM (inactive) in the test with SK-OV-3; > 100 µM (inactive) with SNB-19. The GI50 in the test with HCT-116 was 13.7 µM (inactive); in the test with DU-145, 60.3 µM (inactive); in the test on MDA-N, 32.6 µM (inactive); with HT-29, 26.8 µM (inactive).

For `CN(C)c1cccc(-c2cc(O)c3cc4c(cc3n2)OCO4)c1`, the GI50 with SF-539 was 0.171 µM (active); with SF-295 it was 0.136 µM (active); in the test with M14 it was 0.139 µM (active); in the test on MOLT-4 it was 0.3 µM (active); in the test with SR, 0.708 µM (active); with EKVX, 25.6 µM (inactive). Moreover, the GI50 with SK-MEL-28 was 0.0553 µM (active); with UACC-62, 0.136 µM (active); in the test on HCC 2998 it was 0.193 µM (active); with NCI-H522, 0.0505 µM (active); with RPMI-8226, 0.473 µM (active); in the test on SK-OV-3 it was 0.123 µM (active). Also, the GI50 with SNB-19 is 0.365 µM (active); in the test with HCT-116, 0.138 µM (active); in the test with HOP-92, 2.15 µM (inactive); in the test on HT-29, 0.202 µM (active).

`Cc1c(C)n(COCCO)c2ncnc(N)c12`: the GI50 with SF-539, in the test on SF-295, in the test with M14, in the test with MOLT-4, in the test with SR and in the test on EKVX was > 100 µM (inactive) in each case. In addition, the GI50 in the test on SK-MEL-28, in the test with HCC 2998, in the test with NCI-H522, with RPMI-8226, with SK-OV-3 and in the test with SNB-19 was > 100 µM (inactive) each time. Besides, the GI50 with HOP-92 and in the test with HT-29 was > 100 µM (inactive) each time.

With `C=C1CC2CC[C@@]34C[C@@H]5O[C@@H]6C(O[C@H]7CC[C@H](CC(=O)OC8[C@@H](C)C9OC%10C[C@]%11(C[C@@H]%12O[C@@]%13(C[C@@H](C)[C@@H]%12O%11)C[C@H](C)[C@@H]%11OC%12CC(C(O)CO)OC%12C[C@@H]%11O%13)OC%10CC9O[C@H]8C[C@H]8O[C@@H](CC[C@@H]1O2)C[C@@H](C)C8=C)O[C@@H]7[C@@H]6O3)C5O4` (stereo partly drawn), the GI50 in the test with SF-539 is 0.000933 µM (active); with SF-295, 0.000453 µM (active); with M14, 0.00108 µM (active); in the test with MOLT-4, 0.00135 µM (active); with SR it was 0.000718 µM (active); with EKVX, 0.00405 µM (active). Also, the GI50 in the test on SK-MEL-28 is 0.0014 µM (active); with UACC-62, 0.000494 µM (active); with HCC 2998, 0.00225 µM (active); with NCI-H522 it was 0.000213 µM (active); in the test on RPMI-8226, 0.00185 µM (active); in the test with SK-OV-3, 0.00166 µM (active). Moreover, the GI50 with SNB-19 is 0.00211 µM (active); in the test with HCT-116, 0.000582 µM (active); in the test with HOP-92 it was 0.00236 µM (active); with HT-29, 0.000357 µM (active).

`CC(C)(C)OC(=O)NCCc1cccc2c1oc1c(CCC(=O)O)cccc12`: the GI50 in the test on SF-539, with SF-295, in the test with M14, with MOLT-4, with SR and in the test on SK-MEL-28 was > 100 µM (inactive) in each case. The GI50 in the test on UACC-62, in the test on HCC 2998, with NCI-H522, in the test on RPMI-8226, with SK-OV-3 and in the test with SNB-19 was > 100 µM (inactive) each time. The GI50 in the test with HCT-116, with HOP-92 and with HT-29 was > 100 µM (inactive) throughout.

`N#C/C(=C/c1ccsc1)C(=O)c1ccccc1`: the GI50 in the test on SF-539, in the test on SF-295, with M14, in the test with MOLT-4, in the test on SR and in the test with EKVX was > 100 µM (inactive) each time. Also, the GI50 in the test with SK-MEL-28, with UACC-62, in the test on HCC 2998, in the test with NCI-H522, in the test on RPMI-8226 and with SK-OV-3 was > 100 µM (inactive) throughout. Also, the GI50 in the test on SNB-19, with HCT-116, in the test on HOP-92 and in the test on HT-29 was > 100 µM (inactive) in each case.

`Nc1ccn(CCCC(c2ccccc2)P(=O)(O)O)c(=O)n1` (stereo not drawn): the GI50 in the test on SF-539, in the test on SF-295, with M14, with SR, with SK-MEL-28 and with UACC-62 was > 100 µM (inactive) in each case. The GI50 in the test on HCC 2998, in the test with NCI-H522, with RPMI-8226, in the test with SK-OV-3, with SNB-19 and in the test with HCT-116 was > 100 µM (inactive) each time. Also, the GI50 is 91.4 µM (inactive) in the test on HOP-92 and > 100 µM (inactive) in the test with HT-29.

Take `Cc1cc2c(cc1C)[n+]([O-])c(C(=O)CC(=O)C(=O)Nc1ccccc1C)c(C)[n+]2[O-]`: the GI50 in the test with SF-539 was > 100 µM (inactive); in the test on SF-295, > 100 µM (inactive); with M14, > 100 µM (inactive); with MOLT-4, > 100 µM (inactive); in the test with SR, 38 µM (inactive); with EKVX, 33.8 µM (inactive). Moreover, the GI50 was > 100 µM (inactive) with SK-MEL-28; > 100 µM (inactive) in the test on UACC-62; > 100 µM (inactive) in the test on HCC 2998; 54 µM (inactive) in the test on NCI-H522; > 100 µM (inactive) with RPMI-8226; > 100 µM (inactive) with SK-OV-3. Also, the GI50 in the test with SNB-19, in the test with HCT-116, with HOP-92 and in the test on HT-29 was > 100 µM (inactive) each time.

Consider `O=C(O)c1cc2c3ccccc3nc-2c[nH]1`, for which the GI50 in the test on SF-539, with SF-295, in the test with M14, in the test on MOLT-4, in the test on SR and in the test on EKVX was > 100 µM (inactive) each time. For the same compound, the GI50 with SK-MEL-28, in the test on UACC-62, with HCC 2998, in the test on NCI-H522, in the test on RPMI-8226 and in the test with SK-OV-3 was > 100 µM (inactive) throughout. The GI50 with SNB-19, in the test on HCT-116, in the test on HOP-92 and in the test with HT-29 was > 100 µM (inactive) each time.
